# What was measured:
# Caspase-3 activation [1] = experiment: Glutamate-provoked Caspase-3 activation in wild-type and TrkB-/- cortical neurons; type: cell-based, mice; settings: FIG. 21
# Protocol: To determine whether 7,8-dihydroxyflavone can selectively activate TrkB receptor and prevent neuronal cell death, cortical neurons were prepared from homozygous pups of TrkB+/−mice, which were mated to the same genotype. […] Glutamate nonselectively elicited weak TrkA phosphorylation in both wild-type and TrkB-null neurons (FIG. 21, row 3).
# TrkA = TrkA (Mus musculus, UniProt Q3UFB7); experiment: Immunoblotting of brain lysates from forced swim test mice: TrkA; type: in vivo; parameters: from tissue; host or cells: mouse brain; settings: 5 mg/kg, 21 days oral, anti-p-TrkA 794, FIG. 35
# Chain of TrkA (Q3UFB7 34-799): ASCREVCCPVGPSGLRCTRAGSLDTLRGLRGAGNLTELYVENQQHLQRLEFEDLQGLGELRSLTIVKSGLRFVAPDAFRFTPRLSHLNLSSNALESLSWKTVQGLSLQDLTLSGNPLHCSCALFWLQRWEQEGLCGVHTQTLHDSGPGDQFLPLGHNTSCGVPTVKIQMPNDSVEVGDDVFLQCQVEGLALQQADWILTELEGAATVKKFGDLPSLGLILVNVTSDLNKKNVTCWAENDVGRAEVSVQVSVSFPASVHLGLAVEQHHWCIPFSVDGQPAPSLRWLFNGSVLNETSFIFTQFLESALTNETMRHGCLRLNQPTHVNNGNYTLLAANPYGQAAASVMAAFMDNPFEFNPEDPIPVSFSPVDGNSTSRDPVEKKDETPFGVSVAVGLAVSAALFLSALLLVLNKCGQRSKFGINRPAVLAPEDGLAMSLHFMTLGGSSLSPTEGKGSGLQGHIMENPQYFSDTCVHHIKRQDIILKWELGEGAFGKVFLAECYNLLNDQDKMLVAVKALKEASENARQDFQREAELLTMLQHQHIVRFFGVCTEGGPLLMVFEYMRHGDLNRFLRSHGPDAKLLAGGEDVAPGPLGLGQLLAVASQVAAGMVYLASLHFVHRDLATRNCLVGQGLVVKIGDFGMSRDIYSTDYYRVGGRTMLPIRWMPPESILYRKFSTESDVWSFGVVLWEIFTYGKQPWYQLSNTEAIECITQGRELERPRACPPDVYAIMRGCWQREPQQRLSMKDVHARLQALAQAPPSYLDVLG
# Protocol: To explore whether 4′-DMA-7,8-DHF and 7,8-DHF have any antidepressant effect, a forced swim test (6 minutes, immobility recorded in the last 4 minutes) was conducted after chronic treatment of male C57BL/6J mice (8 mice/group) for 21 days via oral injection.
# KA-provoked apoptosis = experiment: KA-provoked neuronal cell death in TrkB F616A knockin mice, intraperitoneal (caspase-3 immunoblot); type: in vivo
# Protocol: To determine if 1NMPP1 would make neurons treated with 7,8-dihydroxyflavone vulnerable to KA-provoked neuronal cell death, TrkF616A knockin mice were fed with 1NMPP1 (25 mM) in drinking water one day prior to pharmacological reagent treatment. The next day, the mice were intraperitoneally injected with KA (25 mg/kg), or 7,8-dihydroxyflavone (5 mg/kg) 4 hours prior to KA injection. The control mice were injected with either KA or 7,8-dihydroxyflavone alone, or the mice were administered 7,8-dihydroxyflavone 4 hours before KA. In 4 days, the mice were sacrificed and the brains were homogenated and ultracentrifuged. The supernatant was employed for SDS-PAGE and immunoblotting analysis.
# Akt = experiment: Western analysis of Akt phosphorylation in hippocampal neurons; type: cell-based
# Protocol: To further examine whether 7,8-dihydroxyflavone can stimulate TrkB-mediated downstream signaling cascades, Western analysis was performed.
# To probe the time course of 7,8-dihydroxyflavone triggered TrkB activation, hippocampal neurons were treated with 7,8-dihydroxyflavone at 500 nM and phosphorylation of Erk and Akt was determined over time by Western analysis. […] Stimulation of Erk and Akt by 7,8-dihydroxyflavone also occurred in a dose dependent manner.
# hippocampal neurons = experiment: Glutamate-triggered apoptosis in hippocampal neurons; type: cell-based; settings: pretreated 30 minutes, 50 μM glutamate for 16 hours, compared with BDNF, FIG. 6
# Protocol: To examine whether these compounds could promote neuronal survival, hippocampal neurons were prepared and the cultures were pretreated with various flavone derivatives for 30 minutes, followed by treatment with 50 μM glutamate for 16 hours.
# caspase-3 activation [2] = experiment: Active caspase-3 ELISA in glutamate-treated cortical neurons; type: cell-based, rat; settings: 50 nM or higher concentrations, 50 μM glutamate for 16 hours, FIG. 29
# Protocol: To quantitatively compare the anti-apoptotic activity of 7,8-DHF and 4′-DMA-7,8-DHF, cortical neurons were prepared from E16 rat embryonic cells and pretreated with various indicated concentrations of 4′-DMA-7,8-DHF and 7,8-DHF for 30 min, followed by 50 μM glutamate for 16 hours. The cell lysates were quantitatively analyzed with an active caspse-3 ELISA.
# immobility time = experiment: Forced swim test in TrkB F616A knockin mice with saline or 1NMPP1 pretreatment; type: in vivo; settings: drugs for five days, FIG. 36
# Protocol: To assess whether the behavior responses by 7,8-DHF and its derivative are mediated by TrkB receptor, TrkB F616A knockin mice were utilized. The transgenic mice were subjected to saline or 1NMPP1 pretreatment (25 μM), respectively (drinking water provided one day prior to drug injection and maintained throughout whole experiment). The control and/or drugs were provided for five days. […] (Data presented in FIGS. 34, 35, and 36 as mean±SEM; *p<0.05 against vehicle, #P<0.01 against vehicle and ***P<0.0001 against vehicle, student t-test.)
# [3] = molecular target: T1, TrkB extracellular domain (ECD) (Rattus norvegicus, UniProt Q63604); experiment: In vitro binding assay with [3H]7,8-dihydroxyflavone, filter, Scatchard plot: TrkB ECD
# T1 construct: purified TrkB extracellular domain (ECD) and intracellular domain (ICD) recombinant proteins
# T1 sequence (Q63604 32-429 limits assumed): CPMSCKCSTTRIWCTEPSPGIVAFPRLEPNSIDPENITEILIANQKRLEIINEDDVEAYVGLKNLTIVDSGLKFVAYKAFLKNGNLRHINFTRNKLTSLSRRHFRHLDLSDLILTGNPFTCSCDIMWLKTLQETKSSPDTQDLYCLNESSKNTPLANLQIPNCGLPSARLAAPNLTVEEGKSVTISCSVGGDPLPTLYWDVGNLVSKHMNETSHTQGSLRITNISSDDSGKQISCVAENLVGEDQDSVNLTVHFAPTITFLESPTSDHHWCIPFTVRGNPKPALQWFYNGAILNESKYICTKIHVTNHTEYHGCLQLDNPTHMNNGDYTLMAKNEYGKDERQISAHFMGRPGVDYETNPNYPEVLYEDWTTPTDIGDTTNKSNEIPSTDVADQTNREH
# Protocol: To determine whether 7,8-dihydroxyflavone physically and directly binds the TrkB receptor, in vitro binding assays were conducted with purified TrkB extracellular domain (ECD) and intracellular domain (ICD) recombinant proteins. Purified TrkB ECD and ICD (10 μg of each) were incubated with different concentrations of ^3H-7,8-dihydroxyflavone in 1 ml of binding buffer (0.05M Na/K phosphate buffer, pH 7.1, 200 mM NaCl) at 4° C. for 10 minutes. After the incubation, the reaction mixture was loaded on filter paper. The mixture was washed three times with Tris buffer (100 mM Tris, pH 7.1), and the dried filter paper was put into a small vial and subjected to liquid scintillation counter analysis. […] The value of the dissociate constant and the number of sites were obtained from Scatchard plots using the equation r/[L]free=n/Kd−r/Kd, where r is the ratio of the concentration of bound ligand to the total protein concentration and n is the number of binding sites.
# TrkB = TrkB (Rattus norvegicus, UniProt Q63604); experiment: Tyrosine phosphorylation of Trk receptors in transfected HEK293 cells: TrkB; type: cell-based; parameters: expressed in transfected cells; host or cells: HEK293; settings: FIG. 15
# Chain of TrkB (Q63604 32-821): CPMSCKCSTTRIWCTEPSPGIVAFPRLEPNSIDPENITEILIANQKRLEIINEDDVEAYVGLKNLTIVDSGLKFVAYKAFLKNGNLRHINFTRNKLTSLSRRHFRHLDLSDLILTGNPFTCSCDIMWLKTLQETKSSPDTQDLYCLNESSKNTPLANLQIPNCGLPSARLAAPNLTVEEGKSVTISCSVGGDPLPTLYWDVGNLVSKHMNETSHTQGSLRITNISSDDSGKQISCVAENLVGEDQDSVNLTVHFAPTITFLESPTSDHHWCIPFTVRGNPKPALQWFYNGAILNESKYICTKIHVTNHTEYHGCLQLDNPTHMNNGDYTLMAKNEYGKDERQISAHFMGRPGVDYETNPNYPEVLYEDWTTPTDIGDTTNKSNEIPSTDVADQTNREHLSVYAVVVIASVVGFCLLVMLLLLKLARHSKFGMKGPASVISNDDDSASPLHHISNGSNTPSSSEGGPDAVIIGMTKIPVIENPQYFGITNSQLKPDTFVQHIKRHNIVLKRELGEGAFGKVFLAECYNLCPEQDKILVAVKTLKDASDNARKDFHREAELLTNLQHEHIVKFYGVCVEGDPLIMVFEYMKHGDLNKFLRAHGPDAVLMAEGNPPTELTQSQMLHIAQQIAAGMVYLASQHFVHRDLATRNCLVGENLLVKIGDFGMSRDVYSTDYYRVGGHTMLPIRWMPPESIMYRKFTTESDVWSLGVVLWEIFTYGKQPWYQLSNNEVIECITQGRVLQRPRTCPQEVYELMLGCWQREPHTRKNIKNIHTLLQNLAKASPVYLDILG
# Description: To determine if 7,8-dihydroxyflavone promoted tyrosine phosphorylation of the other Trk receptors, HEK293 cells were transfected with various Trk receptors, followed by treatment with 7,8-dihydroxyflavone.
smiles,measurement,setting,value
"O=c1cc(-c2ccccc2)oc2c(O)c(O)ccc12 [7,8-dihydroxyflavone]",Glutamate-provoked Caspase-3 activation in TrkB-/- neurons,Caspase-3 activation [1],not
same,Glutamate-provoked Caspase-3 activation in wild-type neurons,Caspase-3 activation [1],substantially blocked
same,TrkA activation in mouse brain,TrkA,not TrkA activation
same,KA-provoked apoptosis,KA-provoked apoptosis; 5 mg/kg intraperitoneally 4 hours prior to KA (25 mg/kg),suppressed KA-provoked apoptosis
same,protective effect against KA after 1NMPP1 pretreatment,KA-provoked apoptosis; 1NMPP1 in drinking water one day prior,abolished
same,"apoptosis in TrkB F616A mice, treatment alone without KA",KA-provoked apoptosis; FIG. 24,no effect on apoptosis
same,time at which Akt phosphorylation peaked,Akt; 500 nM,30 min
same,time at which Akt phosphorylation was seen,Akt; 500 nM,10 min
same,time by which Akt phosphorylation faded,Akt; 500 nM,180 min
same,Akt activation (Western),Akt; FIG. 9,activated
same,concentration at which Akt activation was observed,Akt; treatment for 30 minutes,100 nm
same,protection of hippocampal neurons from glutamate-induced apoptosis,hippocampal neurons,more protective effect on the neurons than did the positive control BDNF
same,Glutamate-provoked caspase-3 activation,caspase-3 activation [2],substantially blocked
same,immobility time after 1NMPP1 treatment,immobility time; 1NMPP1 25 μM in drinking water,"neither 4′-DMA-7,8-DHF nor 7,8-DHF had any significant effect"
same,"immobility time, saline group",immobility time,substantially reduced the immobility time
same,Kd,"[3]; Scatchard plot, 4° C., 10 minutes, FIG. 16, read-out: binding constant Kd",320 nM
same,binding to TrkB ECD,"[3]; gradual increments of [3H]-7,8-dihydroxyflavone",progressively bound TrkB ECD
same,tyrosine phosphorylation of TrkB receptor,TrkB,elicited tyrosine phosphorylation
